Measurements taken from patent US9850227B2 (YUHAN CORPORATION, priority 2011, dated 2017).
Structures can show the parent of a compound that is named as a salt.

Molecular target: T1, human 5-HT4(a) (Homo sapiens, UniProt Q13639)
T1 construct: host or cells: GeneBIAzer HTR4-CRE-bla CHO-K1 cells
Experiment: Evaluation of agonistic activity in CHO-K1 cells expressing human 5-HT4(a) (GeneBIAzer HTR4-CRE-bla CHO-K1 cells, beta-lactamase fluorescence ratio, EC50 from 8 concentrations)
Assay type: cell-based
In short: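 HTR4-CRE-bla CHO-K1 cells (10^4 per well, overnight in 1% FBS medium) exposed to compound for 5 h, then beta-lactamase substrate 2 h in the dark. Fluorescence ratio at 465/535 nm after 410 nm excitation; EC50 by non-linear regression over 8 concentrations.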

T1 sequence (Q13639 1-387 isoform Q13639-2): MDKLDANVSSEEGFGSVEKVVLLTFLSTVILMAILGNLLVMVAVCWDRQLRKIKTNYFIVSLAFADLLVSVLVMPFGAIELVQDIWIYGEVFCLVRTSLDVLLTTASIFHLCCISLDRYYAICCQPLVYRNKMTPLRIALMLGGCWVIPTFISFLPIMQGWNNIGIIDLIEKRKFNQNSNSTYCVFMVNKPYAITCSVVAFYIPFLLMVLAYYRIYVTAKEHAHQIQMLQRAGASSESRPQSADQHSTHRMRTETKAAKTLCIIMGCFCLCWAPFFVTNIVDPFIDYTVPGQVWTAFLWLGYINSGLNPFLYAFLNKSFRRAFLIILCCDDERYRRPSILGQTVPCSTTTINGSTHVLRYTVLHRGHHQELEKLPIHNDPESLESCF

SMILES	EC50
CCCc1cc(N2CCC[C@@H](N)C2)nc(Nc2ccc(N)c(C#N)c2)n1 [Example 261, (R)-2-amino-5-{[4-(3-aminopiperidin-1-yl)-6-propylpyrimidin-2-yl]amino}benzonitrile]	0.105 nM
CCCc1cc(N2CCC[C@@H](N)C2)nc(Nc2ccc(Cl)c(N)c2)n1 [Example 262, (R)—N^1-[4-(3-aminopiperidin-1-yl)-6-propylpyrimidin-2-yl]-4-chlorobenzene-1,3-diamine]	0.021 nM
CCCc1cc(N2CCC[C@@H](N)C2)nc(Nc2ccc(C)c(C(F)(F)F)c2)n1 [Example 263, (R)-4-(3-aminopiperidin-1-yl)-N-[4-methyl-3-(trifluoromethyl)phenyl]-6-propylpyrimidin-2-amine]	0.0072 nM
CCCc1cc(N2CCC[C@@H](N)C2)nc(Nc2ccc3cc[nH]c3c2)n1 [Example 264, (R)—N-[4-(3-aminopiperidin-1-yl)-6-propylpyrimidin-2-yl]-1H-indol-6-amine]	0.328 nM
CCCc1cc(N2CCC[C@@H](N)C2)nc(Nc2ccc(C)c([N+](=O)[O-])c2)n1 [Example 265, (R)-4-(3-aminopiperidin-1-yl)-N-(4-methyl-3-nitrophenyl)-6-propylpyrimidin-2-amine]	0.049 nM
CCCc1cc(N2CCC[C@@H](N)C2)nc(Nc2ccc(N)c([N+](=O)[O-])c2)n1 [Example 266, (R)—N^1-[4-(3-aminopiperidin-1-yl)-6-propylpyrimidin-2-yl]-3-nitrobenzene-1,4-diamine]	0.0096 nM
CCCc1cc(N2CCC[C@@H](NCC3CC3)C2)nc(Nc2ccc(C)c(C#N)c2)n1 [Example 267, (R)-5-{4-[3-(cyclopropylmethylamino)piperidin-1-yl]-6-propylpyrimidin-2-ylamino}-2-methylbenzonitrile]	0.088 nM
CCCc1cc(N2CCC[C@@H](NC(C)=O)C2)nc(Nc2ccc(F)c(C#N)c2)n1 [Example 268, (R)—N-{1-[2-(3-cyano-4-fluorophenylamino)-6-propylpyrimidin-4-yl]piperidin-3-yl}acetamide]	0.025 nM
CCCc1cc(N2CCC[C@@H](N(CC)CC)C2)nc(Nc2ccc(C)c(C#N)c2)n1 [Example 269, (R)-5-[4-(3-diethylaminopiperidin-1-yl)-6-propylpyrimidin-2-ylamino]-2-methylbenzonitrile]	0.016 nM
CCCc1cc(N2CCC[C@@H](N(CC)CC)C2)nc(Nc2ccc(F)c(C#N)c2)n1 [Example 270, (R)-5-[4-(3-diethylaminopiperidin-1-yl)-6-propylpyrimidin-2-ylamino]-2-fluorobenzonitrile]	0.148 nM
CCCc1cc(N2CCC[C@@H](NCC)C2)nc(Nc2ccc(F)c(C#N)c2)n1 [Example 271, (R)-5-[4-(3-ethylaminopiperidin-1-yl)-6-propylpyrimidin-2-ylamino]-2-fluorobenzonitrile]	0.026 nM
CCCCc1cc(N2CCC[C@@H](NC(C)=O)C2)nc(Nc2cccc(C#N)c2)n1 [Example 272, (R)—N-{1-[6-butyl-2-(3-cyanophenylamino)-pyrimidin-4-yl]-piperidin-3-yl}-acetamide hydrochloride]	0.011 nM
CCCc1cc(N2CCC[C@@H](NC(C)=O)C2)nc(Nc2cccc(C#N)c2)n1 [Example 273, (R)—N-{1-[2-(3-cyanophenylamino)-6-propylpyrimidin-4-yl]piperidin-3-yl}acetamide]	0.046 nM
CCCc1cc(N2CCC[C@@H](NC(C)=O)C2)nc(Nc2cc(N)cc(C#N)c2)n1 [Example 274, (R)—N-{1-[2-(3-amino-5-cyanophenylamino)-6-propylpyrimidin-4-yl]piperidin-3-yl}acetamide]	0.006 nM
CCCc1cc(N2CCCC(NC(C)=O)C2)nc(Nc2ccc(N)c([N+](=O)[O-])c2)n1 (stereo not shown) [Example 275, N-{1-[2-(4-amino-3-nitrophenylamino)-6-propylpyrimidin-4-yl]piperidin-3-yl}acetamide]	0.0034 nM
CCCc1cc(N2CCCC(NC(C)=O)C2)nc(Nc2ccc(F)c(N)c2)n1 (stereo not shown) [Example 276, N-{1-[2-(3-amino-4-fluorophenylamino)-6-propylpyrimidin-4-yl]piperidin-3-yl}acetamide]	0.018 nM
